A short description of data set [1]: Detection of novel coronavirus LNP-mRNA vaccine after encapsulation with different cationic lipids (encapsulation efficiency, particle size, PDI, Zeta potential). To be noted: compared with control cationic lipids III and IV. In kind it is physicochemical.
The test system of another data set is Hep3B cells. The data set is classed as cell-based. To be noted: compared with cationic lipids III and IV.
The conditions of data set [2]: 25° C., up to 4 weeks; compared with cationic lipids III and IV.

For the compound `CCCCCCCCC(CCCCCC)COC(=O)OCCCCCCN(CCCCO)CCCCCCOC(=O)OCC(CCCCCC)CCCCCCCC` (stereo not drawn) [Compound 1], the “encapsulation effect on mRNA antigen” value in data set [1] was “better encapsulation effect”. For the same compound, the in-vitro transfection efficiency result with Hep3B cells is “better”. Further, in data set [2], the “stability of LNP-mRNAs prepared by the cationic lipid” value is “better”.
Consider `CCCCCCCCCCCOC(=O)OCCCCCN(CCO)CCCCCCCOC(=O)OC(CCCCCCCC)CCCCCCCC` [Compound 2], for which the “encapsulation effect on mRNA antigen” value in data set [1] is recorded as “better encapsulation effect”. Besides, in the data set with Hep3B cells, the in-vitro transfection efficiency entry is “better”. The “stability of LNP-mRNAs prepared by the cationic lipid” value in data set [2] was “better”.
